Tests used:
[1] = tested on: potato leafhopper (Empoasca fabae (Harris)); test: Test D: control of potato leafhopper through contact and/or systemic means; type: in vivo; conditions: 144 h, Soleil bean plant, adults, 6 days; for mortality at 250 ppm: tested at 250 ppm; for mortality at 50 ppm: tested at 50 ppm
Experimental: (§1) Test compounds were formulated using a solution containing 10% acetone, 90% water and 300 ppm Activator 90® non-ionic surfactant (Loveland Products, Loveland, Colo., USA). The formulated compounds were applied in 1 mL of liquid through an atomizer nozzle positioned 1.27 cm (0.5 inches) above the top of each test unit. Test compounds were sprayed at the rates indicated, and each test was replicated three times.
For evaluating control of potato leafhopper (Empoasca fabae (Harris)) through contact and/or systemic means, the test unit consisted of a small open container with a 5-6-day-old Soleil bean plant (primary leaves emerged) inside. White sand was added to the top of the soil, and one of the primary leaves was excised prior to application of the test compound.
Test compounds were formulated and sprayed at 250 and/or 50 ppm. After spraying of the formulated test compound, the test units were allowed to dry for 1 hour before they were post-infested with 5 potato leafhoppers (18-to-21-day-old adults). A black, screened cap was placed on the top of the test unit, and the test units were held for 6 days in a growth chamber at 20° C. and 70% relative humidity. Each test unit was then visually assessed for insect mortality.

[2] = tested on: cotton melon aphid (Aphis gossypii (Glover)); test: Test F: control of cotton melon aphid through contact and/or systemic means; type: in vivo; conditions: 144 h, tested at 250 ppm, okra plant, 6 days
Experimental: as §1
[…] This was pre-infested with 30-40 insects on a piece of leaf according to the cut-leaf method, and the soil of the test unit was covered with a layer of sand.
Test compounds were formulated and sprayed at 250 and/or 50 ppm. After spraying, the test units were maintained in a growth chamber for 6 days at 19° C. and 70% relative humidity. Each test unit was then visually assessed for insect mortality.

O=C(CC(c1ccc(Cl)c(Cl)c1)C(F)(F)F)Nc1ccc(Cl)c(C(=O)Nc2ccc(F)cc2)c1 (stereo not drawn) [Compound 1, 3,4-dichloro-N-[4-chloro-3-[[(4-fluorophenyl)amino]carbonyl]phenyl]-β-(trifluoro-methyl)benzenepropanamide]
mortality at 250 ppm [1]: ≥ 80%

O=C(CC(c1cccc(C(F)(F)F)c1)C(F)(F)F)Nc1ccc(Cl)c(C(=O)Nc2ccc(F)cc2F)c1 (stereo not drawn) [Compound 5, N-[4-chloro-3-[[(2,4-difluorophenyl)amino]carbonyl]phenyl]-β,3-bis(trifluoromethyl)benzenepropanamide]
mortality at 250 ppm [1]: ≥ 80%

O=C(CC(c1ccc(Cl)c(Cl)c1)C(F)(F)F)Nc1ccc(Cl)c(C(=O)Nc2ccc(F)cc2F)c1 (stereo not drawn) [Compound 52, 3,4-dichloro-N-[4-chloro-3-[[(2,4-difluorophenyl)amino]carbonyl]phenyl]-β-(trifluoro-methyl)benzenepropanamide]
mortality at 50 ppm [1]: ≥ 80% | mortality at 250 ppm [1]: ≥ 80% | mortality at 250 ppm [2]: ≥ 80%

O=C(CC(c1cc(Cl)cc(Cl)c1)C(F)(F)F)Nc1ccc(Cl)c(C(=O)Nc2ccc(F)cc2F)c1 (stereo not drawn) [Compound 60, 3,5-dichloro-N-[4-chloro-3-[[(2,4-difluorophenyl)amino]carbonyl]phenyl]-β-(trifluoro-methyl)benzenepropanamide]
mortality at 50 ppm [1]: ≥ 80% | mortality at 250 ppm [1]: ≥ 80%

O=C(C[C@H](c1cccc(C(F)(F)F)c1)C(F)(F)F)Nc1ccc(Cl)c(C(=O)Nc2ccc(F)cc2F)c1 [Compound 103, (βR)—N-[4-chloro-3-[[(2,4-difluorophenyl)amino]carbonyl]phenyl]-β,3-bis(trisfluoromethyl)benzenepropanamide]
mortality at 50 ppm [1]: ≥ 80%

O=C(CC(c1ccc(F)c(Cl)c1)C(F)(F)F)Nc1ccc(Cl)c(C(=O)Nc2ccc(F)cc2F)c1 (stereo not drawn) [Compound 115, 3-chloro-N-[4-chloro-3-[[(2,4-difluorophenyl)amino]carbonyl]phenyl]-4-fluoro-β-(trifluoromethyl)benzenepropanamide]
mortality at 50 ppm [1]: ≥ 80%

O=C(CC(c1cccc(C(F)(F)F)c1)C(F)(F)F)Nc1ccc(Cl)c(C(=O)NCc2ccc(F)cc2F)c1 (stereo not drawn) [Compound 148, N-[4-chloro-3-[[(2,4-difluorophenyl)methylamino]carbonyl]phenyl]-β,3-bis(trifluoromethyl)benzenepropanamide]
melting point: 96 to 99 °C
